The record followed here is patent US7713994B2 (Wyeth LLC, priority 2005, dated 2010).

Structures are written as SMILES. Like-named read-outs stand apart in the source and are kept apart here. Bounds are passed on as bounds.

In assay [1] the target is T1, cyclin D1/cdk 4 enzyme (Homo sapiens, UniProt P11802).
T1 construct: made in house; host or cells: Sf9 insect cells, recombinant baculovirus
In words: CDK4 ELISA kinase assay (phospho-Rb ser 795 detection). Type of assay: biochemical. Put shortly:
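GST-Rb C-terminal fragment coated on plates; partially purified Sf9-expressed cyclin D1/CDK4, cyclin E/CDK2 or cyclin B/CDK1 with 200 μM ATP, pH 7.5 HEPES/MgCl2 buffer, 1 h at 30 °C; screen compound final 10 μg/ml. Phospho-Rb Ser795 detected by antibody ELISA (TMB, A450); % of control, IC50 from background-subtracted inhibition curves.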
In general terms: An ELISA detects its analyte on a solid surface through an enzyme-linked reagent.

In assay [2] the target is T2, cyclin E/CDK2 enzyme (Homo sapiens, UniProt P24941).
T2 construct: made in house; host or cells: Sf9 insect cells, recombinant baculovirus
In words: CDK2 ELISA kinase assay (phospho-Rb ser 795 detection). Type of assay: biochemical. As for the experimental part: (§1) • 1. High-binding ELISA microtiter plates (Costar) were coated with 40 μl of the kinase substrate (GST fusion of C-terminal fragment of the retinoblastoma susceptibility gene product) diluted to 10 μg/ml in tris-buffered saline (TBS), overnight at 4° C. • 2. Non-specific binding sites were blocked for 1 hour at 4° C. with Superblock in TBS (Pierce), and the plates rinsed with water. • 3. For the screen, 1.5 μl of test compound (200 μg/ml stock in 20% DMSO/20 mM HEPES, pH 7.5) was added to each well. Final dose of the test compound in the assay was 10 ug/ml. […] The kinase reaction (30 μl) was dispensed into each well. Reactions contained 200 μM ATP, 0.5 mg/ml bovine serum albumin (BSA; Sigma), and 0.5 μl partially purified cyclin D1/cdk 4 enzyme*. The enzyme complex is expressed in insect cells (Sf9) infected with recombinant baculovirus and partially purified using ammonium sulfate fractionation. Reaction volumes were adjusted to 30 μl with kinase assay buffer (50 mM HEPES, pH 7.5, 10 mM MgCl2, 5% glycerol, 10 mM 2-mercaptoethanol). • *: For CDK2 assay, 1.0 μl cyclin E/CDK2 enzyme (diluted 1:1000 in kinase assay buffer) was used. The enzyme is isolated from insect cells (Sf9) infected with recombinant baculovirus and partially purified using ammonium sulfate fractionation. For CDK1 assay, 0.08 μl cyclin B/CDK1 enzyme [New England BioLabs; the enzyme is isolated from insect cells (Sf9) infected with recombinant baculovirus carrying human cdc 2 and human cyclin B] was used.
(§2) […] • 5. Plates were incubated at 30° C. for 1 hour. • 6. The reaction mixture was removed by aspiration and replaced with 250 μl TBS containing 0.1% Tween-20 and 5% nonfat dry milk (blocking buffer). The plates were incubated at 4° C. for 1 hour. • 7. The blocking buffer was removed and replaced with 50 μl of the primary antibody [anti-phospho-Rb ser 795 (New England BioLabs) diluted 1:1000 in blocking buffer]. Incubation was at 4° C. for 16-20 hours. • 8. The wells were rinsed 3 times with 250 μl of TBS containing 0.1% Tween-20 followed by the addition of 50 μl of secondary antibody [anti-rabbit IgG conjugated to horseradish peroxidase (Amersham Life Science) diluted 1:1000 in blocking buffer]. • 9. After a 1 hour incubation at room temperature, the wells were rinsed 3 times with 250 μl of TBS/0.1% Tween 20. • 10. TMB (3,3′,5,5′-tetramethylbenzidine dihydrochloride) substrate solution (100 μl; Pierce) was added to each well and the color development reaction allowed to proceed 5-10 minutes at room temperature with shaking. The reaction was stopped by the addition of 2N sulfuric acid (100 μl) and the absorbance values read at 450 nm in a microplate reader (Molecular Devices). Analysis of Results: • 1. The percentage of the absorbance value in wells containing the test compound relative to control wells (no test agent) was determined. • 2. IC50 values of selected compounds were determined from inhibition curves, after subtracting background values (no substrate).

Assay [3] deals with T3, cyclin B/CDK1 enzyme (Homo sapiens, UniProt P06493).
T3 construct: purchased New England BioLabs; host or cells: Sf9 insect cells, recombinant baculovirus
T3 sequence (P06493 whole entry): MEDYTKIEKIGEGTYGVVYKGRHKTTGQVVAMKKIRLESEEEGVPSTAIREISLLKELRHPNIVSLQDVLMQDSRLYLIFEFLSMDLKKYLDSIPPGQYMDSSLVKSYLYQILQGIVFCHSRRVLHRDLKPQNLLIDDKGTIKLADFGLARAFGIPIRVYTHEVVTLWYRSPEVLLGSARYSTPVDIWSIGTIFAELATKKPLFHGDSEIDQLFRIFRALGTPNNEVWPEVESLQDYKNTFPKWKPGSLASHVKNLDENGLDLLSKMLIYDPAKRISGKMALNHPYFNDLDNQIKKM
T3 sequence (P14635 whole entry partner): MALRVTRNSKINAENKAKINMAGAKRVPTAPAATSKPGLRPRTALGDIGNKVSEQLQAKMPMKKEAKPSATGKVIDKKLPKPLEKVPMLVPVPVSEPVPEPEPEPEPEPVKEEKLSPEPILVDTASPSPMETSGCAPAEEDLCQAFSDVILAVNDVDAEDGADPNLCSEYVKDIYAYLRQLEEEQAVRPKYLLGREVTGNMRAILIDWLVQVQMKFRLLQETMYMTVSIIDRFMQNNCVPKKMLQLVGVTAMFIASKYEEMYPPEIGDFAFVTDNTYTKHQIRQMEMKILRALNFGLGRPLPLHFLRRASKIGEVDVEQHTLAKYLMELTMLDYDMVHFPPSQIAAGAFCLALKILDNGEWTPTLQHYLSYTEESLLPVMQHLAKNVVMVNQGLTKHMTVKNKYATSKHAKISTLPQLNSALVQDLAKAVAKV
In words: CDK1 ELISA kinase assay (phospho-Rb ser 795 detection). Type of assay: biochemical. As for the experimental part:
as §1, §2

The subject of assay [4] is BT474. The assay can be described thus: Cytotoxicity assay (SRB), BT474. Type of assay: cell-based. The conditions noted are these: Homo sapiens, BT-474, 144 h, BT474 cells, 6 days, SRB; read-out: In Vitro Cellular Activity IC50 BT474. Put shortly: (§3)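 Seeding: BT474 12000, HCT-116 4000, LoVo 6000, MCF-7 6000 cells/well; overnight attachment, 37 °C, 7% CO2. Drug exposure 3 d (BT474 6 d), RPMI 1640 + 5% FBS. Readout: TCA fix, 0.4% SRB, Tris solubilisation, A540.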

Assay [5] concerns HCT-116. The assay can be described thus: Cytotoxicity assay (SRB), HCT-116. Type of assay: cell-based. Particulars: Homo sapiens, HCT-116, 72 h, HCT116 cells, 3 days, SRB; read-out: In Vitro Cellular Activity IC50 HCT116. Put shortly:
as §3

For assay [6], the system named is LoVo. In words: Cytotoxicity assay (SRB), LoVo. Type of assay: cell-based. Particulars: Homo sapiens, LoVo, 72 h, LoVo cells, 3 days, SRB; read-out: In Vitro Cellular Activity IC50 LOVO. The method in brief: as §3
Assay [7] has as its system MCF-7. The assay can be described thus: Cytotoxicity assay (SRB), MCF-7. Particulars: Homo sapiens, MCF7, 72 h, MCF-7 cells, 3 days, SRB; read-out: In Vitro Cellular Activity IC50 MCF-7. Type of assay: cell-based. Put shortly: as §3
[8] abbreviates: In Vitro Enzyme Assays, 200 μM ATP, read-out: CDK4 IC50.
The mark [9] stands for this setting: In Vitro Enzyme Assays, read-out: CDK2 IC50.
The mark [10] stands for this setting: In Vitro Enzyme Assays, read-out: CDK1 IC50.
[11] abbreviates: In Vitro Enzyme Assay, cyclin D1/cdk 4, read-out: CDK4 IC50.
Where [12] appears, read: In Vitro Enzyme Assay, cyclin E/CDK2, read-out: CDK2 IC50.
[13] abbreviates: In Vitro Enzyme Assay, cyclin B/CDK1, read-out: CDK1 IC50.

T1 sequence (P11802 whole entry, species assumed): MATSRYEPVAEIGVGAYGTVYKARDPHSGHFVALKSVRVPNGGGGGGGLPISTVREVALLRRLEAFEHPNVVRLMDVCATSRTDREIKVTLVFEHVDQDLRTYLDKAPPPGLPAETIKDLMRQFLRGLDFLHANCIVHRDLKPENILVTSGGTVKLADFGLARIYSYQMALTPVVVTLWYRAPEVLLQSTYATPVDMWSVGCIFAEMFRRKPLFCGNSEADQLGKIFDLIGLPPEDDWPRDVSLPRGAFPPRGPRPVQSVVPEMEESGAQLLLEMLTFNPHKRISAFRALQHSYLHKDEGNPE
T1 sequence (P24385 whole entry partner, species assumed): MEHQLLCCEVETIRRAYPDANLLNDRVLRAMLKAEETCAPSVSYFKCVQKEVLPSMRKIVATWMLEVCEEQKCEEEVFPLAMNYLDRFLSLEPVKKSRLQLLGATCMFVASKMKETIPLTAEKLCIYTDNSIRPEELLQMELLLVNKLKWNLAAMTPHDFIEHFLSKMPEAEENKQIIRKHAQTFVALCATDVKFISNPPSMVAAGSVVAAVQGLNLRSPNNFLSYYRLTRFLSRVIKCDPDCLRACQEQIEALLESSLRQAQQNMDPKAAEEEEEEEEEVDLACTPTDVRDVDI

Usually IC50 stands for the concentration needed to halve the response being measured. On to `O=C1NC(=O)c2ccc(Br)cc2/C1=C/NCc1ccc(O)c(O)c1` [Example 40, (4Z)-6-Bromo-4-{[(3,4-dihydroxybenzyl)amino]methylene}isoquinoline-1,3(2H,4H)-dione], for which the half-inhibitory concentration (IC50) in assay [1] (setting [8]) is 0.04 µM; in assay [2] (setting [9]), more than 50 µM; in assay [3] (setting [10]), more than 50 µM.
As for `COc1ccc(CN/C=C2\C(=O)NC(=O)c3ccc(Cl)cc32)cc1O` [Example 67, (4Z)-6-Chloro-4-{[(3-hydroxy-4-methoxybenzyl)amino]methylene}isoquinoline-1,3(2H,4H)-dione], the IC50 was 0.23 µM in assay [1] (setting [8]), more than 50 µM in assay [2] (setting [9]) and more than 50 µM in assay [3] (setting [10]).
Turning to `Nc1cc(CN/C=C2\C(=O)NC(=O)c3ccc(Br)cc32)cc(O)c1O` [Example 204, (4Z)-4-{[(3-Amino-4,5-dihydroxybenzyl)amino]methylene}-6-bromoisoquinoline-1,3(2H,4H)-dione], the IC50 in assay [1] (setting [8]) is 0.22 µM; in assay [2] (setting [9]), 7 µM; in assay [3] (setting [10]), more than 50 µM.
Take `O=C1NC(=O)c2ccc(Br)cc2C1=CNc1ccc(-c2cccnc2)cc1` [Example 349, 6-Bromo-4-[(4-pyridin-3-yl-phenylamino)-methylene]-4H-isoquinoline-1,3-dione]: the values for the half-maximal inhibitory concentration (IC50) in assay [1] (setting [8]), in assay [2] (setting [9]) and in assay [3] (setting [10]) were 37.1 µM, 36.3 µM and more than 50 µM, respectively.
The corresponding values for `CCCOc1ccc(CN/C=C2\C(=O)NC(=O)c3ccc(Br)cc32)cc1C(=O)O` [Example 352, 5-({[(Z)-(6-Bromo-1,3-dioxo-2,3-dihydroisoquinolin-4(1H)-ylidene)methyl]amino}methyl)-2-propoxybenzoic acid] are 1.9 µM, 12 µM and 22.6 µM.
As for `N=C(N)c1ccc(NC=C2C(=O)NC(=O)c3ccccc32)cc1` [Example 547, 4-[(1,3-Dioxo-2,3-dihydro-1H-isoquinolin-4-ylidenemethyl)-amino]-benzamidine], the values for the half-maximal inhibitory concentration (IC50) in assay [1] (setting [11]), in assay [2] (setting [12]) and in assay [3] (setting [13]) were 13.2 µM, 6.6 µM and more than 50 µM, respectively.
The corresponding values for `N#CCc1ccc(NC=C2C(=O)NC(=O)c3ccccc32)cc1` [Example 555, {4-[(1,3-Dioxo-2,3-dihydro-1H-isoquinolin-4-ylidenemethyl)-amino]-phenyl}-acetonitrile] are 14.7 µM, 21.3 µM and 45 µM.
For the molecule `O=C1NC(=O)c2ccccc2C1=CNc1ccc(O)c(C(=O)O)c1` [Example 563, 5-[(1,3-Dioxo-2,3-dihydro-1H-isoquinolin-4-ylidenemethyl)-amino]-2-hydroxy-benzoic acid], the IC50 in assay [1] (setting [11]) was found to be 8.2 µM; in assay [2] (setting [12]) it was 15.1 µM; in assay [3] (setting [13]) it was 18.5 µM.
Regarding `O=C1NC(=O)c2ccccc2C1=CNCC(O)c1ccc(O)c(O)c1` (stereo not drawn) [Example 564, 4-{[2-(3,4-Dihydroxy-phenyl)-2-hydroxy-ethylamino]-methylene}-4H-isoquinoline-1,3-dione], the IC50 in assay [1] (setting [11]) turned out to be 12.8 µM; in assay [2] (setting [12]), 13.8 µM; in assay [3] (setting [13]) it was 16.9 µM.
For the molecule `N#CCc1ccc(C=Cc2ccc3c(c2)C(=CNCc2ccc(O)c(O)c2)C(=O)NC3=O)cc1` [Example 805, [4-(2-{4-[(3,4-Dihydroxy-benzylamino)-methylene]-1,3-dioxo-1,2,3,4-tetrahydro-isoquinolin-6-yl}-vinyl)-phenyl]-acetonitrile], the IC50 in assay [1] (setting [11]) is 0.29 µM; in assay [2] (setting [12]), 23.1 µM; in assay [4], 21.9 µM; in assay [5], 13.8 µM; in assay [6], 36.3 µM; in assay [7], 33.9 µM.
For the molecule `COc1ccc(CNC=C2C(=O)NC(=O)c3ccc(C=CCN4CC(=O)NC4=O)cc32)cc1O` [Example 826, 6-[3-(2,4-Dioxo-imidazolidin-1-yl)-propenyl]-4-[(3-hydroxy-4-methoxy-benzylamino)-methylene]-4H-isoquinoline-1,3-dione], the IC50 is 0.11 µM in assay [1] (setting [11]); 12.9 µM in assay [2] (setting [12]); more than 50 µM in assay [4]; 36.9 µM in assay [5]; more than 50 µM in assay [6]; more than 50 µM in assay [7].
